US20150065447A1, “SURVIVAL BENEFIT IN PATIENTS WITH SOLID TUMORS WITH ELEVATED C-REACTIVE PROTEIN LEVELS” (Incyte Corporation, priority 2013, published 2015)
Several values for one entry are separate records, joined by “and”; a condition that tells them apart may be missing. Identical values can stand only once. Each block holds one molecule with its values, some of them ahead of it.

Experiments:
[1] = target: T1, human JAK1 (a.a. 837-1142) (Homo sapiens, UniProt P23458); assay: In vitro JAK Kinase Assay (HTRF), JAK1; type: biochemical; details: 1 mM ATP
T1 construct: human JAK1 (a.a. 837-1142); His tag (N); made in house; host or cells: insect cells (baculovirus)
Protocol: (§1) The catalytic activity of JAK1 and JAK2 was assayed by measuring the phosphorylation of a biotinylated peptide. The phosphorylated peptide was detected by homogenous time resolved fluorescence (HTRF). […] Reactions were carried out at room temperature for 1 hr and then stopped with 20 μL 45 mM EDTA, 300 nM SA-APC, 6 nM Eu-Py20 in assay buffer (Perkin Elmer, Boston, Mass.). Binding to the Europium labeled antibody took place for 40 minutes and HTRF signal was measured on a Fusion plate reader (Perkin Elmer, Boston, Mass.).

[2] = target: T2, human JAK2 (a.a. 828-1132) (Homo sapiens, UniProt O60674); assay: In vitro JAK Kinase Assay (HTRF), JAK2 (for JAK2/JAK1 ratio); type: biochemical; details: ratio of IC50s, 1 mM ATP
T2 construct: JAK2 (a.a. 828-1132); His tag (N); made in house; host or cells: insect cells (baculovirus)
Protocol: as §1

[3] = test system: Subjects with metastatic pancreatic adenocarcinoma that is recurrent or treatment refractory; assay: Randomized, double-blind study of capecitabine + ruxolitinib phosphate vs capecitabine + placebo, survival by baseline CRP / mGPS; details: for Hazard ratio (Rux/Pbo): Cox regression with formal interaction testing; for Active vs Control Hazard Ratio: ruxolitinib vs placebo; for Number of Subjects with Disease Progression, Observed: progression-free survival (death or progressive disease by RECIST 1.1)
Protocol: Baseline C-reactive protein (CRP) levels were measured for each patient prior to treatment in Arm 1 and Arm 2. Serum CRP concentrations were measured by RMB (RBM multiplexed Luminex®) commercial assay (Myriad RBM). […] The baseline CRP level was calculated on a per patient basis. The patients comprised two groups. Group 1 included all patients who were randomized and took Study Drug. […] For Group 1, the CRP level was the last tested CRP level taken before first dose of Study Drug. For Group 2, the last available value of CRP was taken, if available, for example from screening procedures. With baseline CRP levels for all patients, the median was calculated using normal statistical methods known to one skilled in the art.

[4] = Cox regression analysis of overall survival using baseline predictors, CRP > 13 mg/L, ruxolitinib arm
[5] = overall survival, C-Reactive Protein > 13 (μg/mL), Intent-to-Treat, capecitabine + ruxolitinib arm, N = 31
[6] = overall survival, C-Reactive Protein > 13 (μg/mL), ruxolitinib arm, N = 31
[7] = overall survival, C-Reactive Protein ≦ 13 (μg/mL), Intent-to-Treat, capecitabine + ruxolitinib arm, N = 28
[8] = overall survival, C-Reactive Protein ≦ 13 (μg/mL), ruxolitinib arm, N = 28
[9] = patients with CRP<13 mg/L, ruxolitinib group
[10] = patients with CRP>13 mg/L, ruxolitinib group
[11] = progression-free survival, Table 3, C-Reactive Protein ≦ 13 (μg/mL), ruxolitinib arm, N = 28
[12] = progression-free survival, Table 4, C-Reactive Protein ≦ 13 (μg/mL), ruxolitinib arm, N = 31

T1 sequence (P23458 849-1154): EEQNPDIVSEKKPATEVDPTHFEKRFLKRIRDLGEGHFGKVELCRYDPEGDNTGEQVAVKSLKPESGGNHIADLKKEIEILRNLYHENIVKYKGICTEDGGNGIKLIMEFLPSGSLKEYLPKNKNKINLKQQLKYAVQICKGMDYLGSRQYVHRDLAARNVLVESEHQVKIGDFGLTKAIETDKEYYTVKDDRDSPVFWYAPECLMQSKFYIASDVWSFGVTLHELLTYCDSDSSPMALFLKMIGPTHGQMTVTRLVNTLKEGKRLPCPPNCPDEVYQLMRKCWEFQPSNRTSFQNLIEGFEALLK
T2 sequence (O60674 828-1132): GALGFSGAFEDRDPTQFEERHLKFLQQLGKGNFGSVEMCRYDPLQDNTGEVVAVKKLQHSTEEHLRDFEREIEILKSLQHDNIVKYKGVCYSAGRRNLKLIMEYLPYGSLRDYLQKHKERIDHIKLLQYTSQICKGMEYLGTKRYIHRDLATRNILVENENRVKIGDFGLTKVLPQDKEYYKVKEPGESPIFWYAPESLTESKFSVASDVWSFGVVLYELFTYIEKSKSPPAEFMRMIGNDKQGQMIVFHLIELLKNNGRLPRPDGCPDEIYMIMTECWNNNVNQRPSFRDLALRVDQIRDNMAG

IC50 [1]: < 0.01 µM | JAK2/JAK1 [2]: >10
Structure (SMILES): N#CC[C@]1(n2cc(-c3ncnc4[nH]ccc34)cn2)C[C@H](N2CCN(C(=O)c3ccnc(C(F)(F)F)n3)CC2)C1 [Compound 10, [trans-1-[4-(7H-pyrrolo[2,3-d]pyrimidin-4-yl)-1H-pyrazol-1-yl]-3-(4-{[2-(trifluoromethyl)pyrimidin-4-yl]carbonyl}piperazin-1-yl)cyclobutyl]acetonitrile]

IC50 [1]: < 0.01 µM | JAK2/JAK1 [2]: >10
Structure (SMILES): N#CC[C@]1(n2cc(-c3ncnc4[nH]ccc34)cn2)C[C@H](N2CCC(Oc3cc(CN4CCC[C@H]4CO)cc(C(F)(F)F)n3)CC2)C1 [Compound 12, {trans-3-(4-{[4-{[(2S)-2-(hydroxymethyl)pyrrolidin-1-yl]methyl}-6-(trifluoromethyl)pyridin-2-yl]oxy}piperidin-1-yl)-1-[4-(7H-pyrrolo[2,3-d]pyrimidin-4-yl)-1H-pyrazol-1-yl]cyclobutyl}acetonitrile]

IC50 [1]: < 0.01 µM | JAK2/JAK1 [2]: >10
Structure (SMILES): N#CC[C@]1(n2cc(-c3ncnc4[nH]ccc34)cn2)C[C@H](N2CCC(Oc3cc(CN4CCC[C@@H]4CO)cc(C(F)(F)F)n3)CC2)C1 [Compound 13, {trans-3-(4-{[4-{[(2R)-2-(hydroxymethyl)pyrrolidin-1-yl]methyl}-6-(trifluoromethyl)pyridin-2-yl]oxy}piperidin-1-yl)-1-[4-(7H-pyrrolo[2,3-d]pyrimidin-4-yl)-1H-pyrazol-1-yl]cyclobutyl}acetonitrile]

IC50 [1]: < 0.01 µM | JAK2/JAK1 [2]: >10
Structure (SMILES): N#CCC1(n2cc(-c3ncnc4[nH]ccc34)cn2)CN(C2CCN(C(=O)Nc3ccc(F)cc3C(F)(F)F)CC2)C1 [Compound 8, 4-{3-(Cyanomethyl)-3-[4-(7H-pyrrolo[2,3-d]pyrimidin-4-yl)-1H-pyrazol-1-yl]azetidin-1-yl}-N-[4-fluoro-2-(trifluoromethyl)phenyl]piperidine-1-carboxamide]

IC50 [1]: < 0.01 µM | JAK2/JAK1 [2]: >10
Structure (SMILES): N#CCC1(n2cc(-c3ncnc4[nH]ccc34)cn2)CN(C2CCN(C(=O)c3ccnc(C(F)(F)F)c3F)CC2)C1 [Compound 7, {l-{l-[3-Fluoro-2-(trifluoromethyl)isonicotinoyl]piperidin-4-yl}-3-[4-(7H-pyrrolo[2,3-d]pyrimidin-4-yl)-1H-pyrazol-1-yl]azetidin-3-yl}acetonitrile]

IC50 [1]: < 0.01 µM | JAK2/JAK1 [2]: >10
Structure (SMILES): N#CCC1(n2cc(-c3ncnc4[nH]ccc34)cn2)CN(C2CCN(C(=O)c3ccnc(C(F)(F)F)n3)CC2)C1 [Compound 9, [3-[4-(7H-pyrrolo[2,3-d]pyrimidin-4-yl)-1H-pyrazol-1-yl]-1-(l-{[2-(trifluoromethyl)pyrimidin-4-yl]carbonyl}piperidin-4-yl)azetidin-3-yl]acetonitrile]

IC50 [1]: < 0.01 µM | JAK2/JAK1 [2]: >10
Structure (SMILES): N#CC[C@]1(n2cc(-c3ncnc4[nH]ccc34)cn2)C[C@H](N2CCC(Oc3cc(CCO)cc(C(F)(F)F)n3)CC2)C1 [Compound 26, {trans-3-(4-{[4-(2-hydroxyethyl)-6-(trifluoromethyl)pyridin-2-yl]oxy}piperidin-1-yl)-1-[4-(7H-pyrrolo[2,3-d]pyrimidin-4-yl)-1H-pyrazol-1-yl]cyclobutyl}acetonitrile]

The next lines start with the molecule.

Structure (SMILES): N#CCC1(n2cc(-c3ncnc4[nH]ccc34)cn2)CN([C@H]2CC[C@@H](Oc3cc(CN4CC[C@H](O)C4)cc(C(F)(F)F)n3)CC2)C1 [Compound 22, {1-(cis-4-{[4-{[(3S)-3-hydroxypyrrolidin-1-yl]methyl}-6-(trifluoromethyl)pyridin-2-yl]oxy}cyclohexyl)-3-[4-(7H-pyrrolo[2,3-d]pyrimidin-4-yl)-1H-pyrazol-1-yl]azetidin-3-yl}acetonitrile]
IC50 [1]: < 0.01 µM | JAK2/JAK1 [2]: >10

Structure (SMILES): N#CCC(CN1CCN(C(=O)c2ccc(C#N)cc2F)CC1)n1ccc(-c2ncnc3[nH]ccc23)c1 (stereo not drawn) [Compound 6, 4-[(4-{3-cyano-2-[3-(7H-pyrrolo[2,3-d]pyrimidin-4-yl)-1H-pyrrol-1-yl]propyl}piperazin-l-yl)carbonyl]-3-fluorobenzonitrile]
IC50 [1]: < 0.01 µM | JAK2/JAK1 [2]: >10

Structure (SMILES): N#CCC(CN1CCN(C(=O)c2ccc(C#N)cc2F)CC1)n1cc(-c2ncnc3[nH]ccc23)cn1 (centres unmarked) [Compound 5, 4-[(4-{3-cyano-2-[4-(7H-pyrrolo[2,3-d]pyrimidin-4-yl)-1H-pyrazol-1-yl]propyl}piperazin-1-yl)carbonyl]-3-fluorobenzonitrile]
IC50 [1]: < 0.01 µM | JAK2/JAK1 [2]: >10

Structure (SMILES): N#CC[C@H](C1CCCC1)n1cc(-c2ncnc3[nH]ccc23)cn1 [Ruxolitinib, ruxolitinib]
(%) subjects Censored [3, 4]: (20.0) % | (%) subjects who died, Observed [3, 4]: (80.0) % | Number subjects Censored [3, 4]: 6 | Number subjects who died, Observed [3, 4]: 24 | Hazard ratio (Rux/Pbo) ([3]; subgroup CRP > 13 mg/L): 0.473 | Hazard ratio (Rux/Pbo) ([3]; subgroup Karnofsky: 60-80): 0.799 | Hazard ratio (Rux/Pbo) ([3]; subgroup Low albumin): 0.618 | HR for progression-free survival (PFS) ([3]; intent-to-treat analysis including all randomized patients): 0.75 | (%) of Subjects Censored [3, 5]: ( 19.4%) | (%) of Subjects Died, Observed [3, 5]: ( 80.6%) | Number of Subjects Censored [3, 5]: 6 | Number of Subjects Died, Observed [3, 5]: 25 | Median Time to Event [3, 6]: 83.0 days | Month 3 Survival Rate(%) [3, 6]: 48.4% | Month 6 Survival Rate(%) [3, 6]: 41.5% | Month 9 Survival Rate(%) [3, 6]: 16.5% | Month 12 Survival Rate(%) [3, 6]: 11.0% | Active vs Control Hazard Ratio ([3]; overall survival, C-Reactive Protein > 13 (μg/mL), Cox regression): 0.473 | (%) of Subjects Censored [3, 7]: ( 28.6%) | (%) of Subjects Died, Observed [3, 7]: ( 71.4%) | Number of Subjects Censored [3, 7]: 8 | Number of Subjects Died, Observed [3, 7]: 20 | Median Time to Event [3, 8]: 185.5 days | Month 3 Survival Rate(%) [3, 8]: 82.1% | Month 6 Survival Rate(%) [3, 8]: 50.0% | Month 9 Survival Rate(%) [3, 8]: 37.3% | Month 12 Survival Rate(%) [3, 8]: 19.9% | Active vs Control Hazard Ratio ([3]; overall survival, C-Reactive Protein ≦ 13 (μg/mL), Cox regression): 0.887 | Hazard Ratio, Treatment (ruxolitinib vs placebo) ([3]; overall survival, CRP > 13 mg/L, Cox regression accounting for baseline characteristics): 0.50 and 0.501 | hazard ratio for PFS ([3]; patients with CRP<13 mg/L): 0.82 | probability of PFS at 3 months [3, 9]: 39% | probability of PFS at 6 months [3, 9]: 25% | probability of PFS at 9 months [3, 9]: 10% | HR for PFS ([3]; patients with CRP>13 mg/L): 0.62 | proportion showing disease stabilization (RECIST v1.1) ([3]; patients with CRP>13 mg/L receiving ruxolitinib with postbaseline assessments (N=19)): 68.4% | probability of progression-free survival at 3 months [3, 10]: 35% | probability of progression-free survival at 6 months [3, 10]: 21% | probability of progression-free survival at 9 months [3, 10]: 11% | HR for OS ([3]; patients with mGPS of 0 (N=51)): 0.91 | HR for OS ([3]; patients with mGPS of 1 (N=34)): 0.71 | HR for OS ([3]; patients with mGPS of 2 (N=36)): 0.49 | HR (survival) ([3]; post-hoc analysis, patients with CRP≦10 mg/L (N=51)): 0.91 | HR in favor of ruxolitinib (survival) ([3]; post-hoc analysis, patients with a CRP>10 mg/L (N=70)): 0.60 | Number of Subjects with Disease Progression, Observed ([3]; Table 3, C-Reactive Protein ≦ 13 (μg/mL), ruxolitinib arm, N = 28): 26 | Number of Subjects with Disease Progression, Observed ([3]; Table 4, C-Reactive Protein ≦ 13 (μg/mL), ruxolitinib arm, N = 31): 26 | (%) of Subjects Censored [3, 11]: ( 7.1%) | (%) of Subjects with Disease Progression, Observed [3, 11]: ( 92.9%) | Median Time to Event [3, 11]: 80.0 days | Month 3 Survival Rate(%) [3, 11]: 39.3% | Month 6 Survival Rate(%) [3, 11]: 25.0% | Month 9 Survival Rate(%) [3, 11]: 10.0% | Number of Subjects Censored [3, 11]: 2 | Active vs Control Hazard Ratio ([3]; progression-free survival, Table 3, C-Reactive Protein ≦ 13 (μg/mL)): 0.818 | (%) of Subjects Censored [3, 12]: ( 16.1%) | (%) of Subjects with Disease Progression, Observed [3, 12]: ( 83.9%) | Median Time to Event [3, 12]: 48.0 days | Month 3 Survival Rate(%) [3, 12]: 34.5% | Month 6 Survival Rate(%) [3, 12]: 20.7% | Month 9 Survival Rate(%) [3, 12]: 11.0% | Month 12 Survival Rate(%) [3, 12]: 0.0% | Number of Subjects Censored [3, 12]: 5 | Active vs Control Hazard Ratio ([3]; progression-free survival, Table 4, C-Reactive Protein ≦ 13 (μg/mL)): 0.619

Structure (SMILES): N#CCC(C1CCN(c2cccc(Cl)n2)C1)n1cc(-c2ncnc3[nH]ccc23)cn1 (single isomer, unassigned) [Compound 3, 3-[1-(6-chloropyridin-2-yl)pyrrolidin-3-yl]-3-[4-(7H-pyrrolo[2,3-d]pyrimidin-4-yl)-1H-pyrazol-1-yl]propanenitrile]
IC50 [1]: < 0.01 µM | JAK2/JAK1 [2]: >10

Structure (SMILES): N#CCC(C1CCN(c2nc3cccnc3o2)C1)n1cc(-c2ncnc3[nH]ccc23)cn1 (centres unmarked) [Compound 4, 3-(1-[1,3]oxazolo[5,4-b]pyridin-2-ylpyrrolidin-3-yl)-3-[4-(7H-pyrrolo[2,3-d]pyrimidin-4-yl)-1H-pyrazol-1-yl]propanenitrile]
IC50 [1]: < 0.01 µM | JAK2/JAK1 [2]: >10
